The text below walks through data of patent US12503446B2, “Bromodomain inhibitors” (FORSCHUNGSZENTRUM JÜLICH GMBH, priority 2019, dated 2025).

One assay has as its system AML cell line Molm-14. Description: MTT assay, metabolic activity of Molm-14 cells. It is filed as cell-based. Conditions: 1 μM, 72 h, DMSO control set to 100%. The method, then:
All studies with the HEL, Molm-14 and K562 cell lines mentioned (sourced from DSMZ: ACC-11, ACC-10 and ACC-777) were conducted under germ-free conditions under a sterile hood. Incubation was effected at 37° C. in an incubator at a CO2 saturation of 5%. For the passage of the suspension cells, the cells were transferred in a Falcon prefilled with PBS (phosphate buffered saline) and centrifuged at 1200 rpm for 5 min. All three cell lines were cultured in RPMI-1640 medium (Gibco, Thermo Fischer Scientific, Darmstadt, Germany) with 10% FCS and 1% penicillin streptomycin.
The viability and metabolic activity of the cells were measured by the MTT assay. Yellow, water-soluble MTT (3-([…])-2,5-diphenyltetrazolium bromide) is a tetrazolium salt which is reduced to dark blue formazan in living cells. Insoluble formazan is released by addition of isopropanol-HCl, and its intensity can be determined by photometry at a wavelength of 550 nm. Thus, the proportion of living cells is measured by comparison with a particular control sample. The cells were counted and washed with PBS, and 30 000 cells per well were sown in triplicates in a 96-well plate. For the inhibitor treatment, the stated final concentrations were used. For this purpose, 10 µl of the appropriate inhibitor dilution was introduced into the 96-well plates, and then 90 μl of cell suspension was pipetted in. The plates were incubated in an incubator for 72 h (37° C., 5% CO2). After the incubation, 10 μl of MTT solution (5 mg/ml) was applied to the wells with a multichannel pipette and thoroughly resuspended. This was followed by incubation for 4 h in the dark at room temperature. Subsequently, the cells were resuspended in 100 μl of isopropanol-HCl and lysed, and absorption at a wavelength of 550 nm was measured by photometry with a plate reader (Kayto, RT-2100C).
The erythroleukaemia cell line HEL (JAK2V617F-positive), the AML cell line Molm-14 and the chronic myeloid leukaemia (CML) cell line K562 (BCR-ABL-positive) were used for cell experiments.
Compounds MF1-R, MF1-S, JHS1-R and JHS1-S were dissolved in DMSO, and each was used in concentrations of 0.1 μM, 1 μM, 10 μM and 20 μM. Correspondingly, DMSO was included in each case as a control treatment, and the metabolic activity thereof was set to 100%. The HEL, Molm-14 and K562 cell lines were treated with the respective compounds in the different concentrations and, after 72 h in culture, the metabolic activity, which gives information about the growth of the cells, was determined by means of MTT [3-(4,5-dimethylthiazol-2-yl)-2,5-diphenyltetrazolium bromide] assay.
For orientation: Tetrazolium assays rely on reduction of a dye to a coloured formazan, in cell work by metabolically active cells.

The next assay has as its system HEL cells. Description: Proliferation assay, cell count after trypan blue staining, HEL. It is filed as cell-based. The conditions noted are these: 1 or 5 μM, 24-72 h, by comparison with PFI-1. The method, then: (§1) Cell count and viability was determined after trypan blue staining. The appropriate concentrations of the inhibitors per ml of medium were added, or the correspondingly highest volume of DMSO was added as control group.
(§2) The cell growth described here is referred to as proliferation, and gives information as to the cell divisions that proceeded in the specified period.

Assay [1] concerns Molm-14 cells. Description: Proliferation assay, cell count after trypan blue staining, Molm-14. It is filed as cell-based. Conditions: 1 or 5 μM, 24-72 h, by comparison with PFI-1. The method, then: as §1, §2
Assay [2] concerns Molm-14 cells. Description: Cell cycle analysis (propidium iodide, flow cytometry), Molm-14. Format: cell-based. Conditions: compared to PFI-1. The method, then: The influence of the inhibitors used on the cell cycle was examined by means of propidium iodide staining of the fixed cells. For this purpose, the cells were fixed with 95% ethanol at −20° C., RNA was destroyed by RNase (100 μg/ml) at 37° C. for […], and the DNA was stained by means of propidium iodide (50 μg/ml). Using a flow cytometer (Gallios (Beckman Coulter, Krefeld, Germany)), the cell cycle phases were analysed, and the data were evaluated by means of FlowJo Software (Version 10).
During the proliferation, the cells go through different stages of the cell cycle in which genomic DNA is replicated, the cell nucleus is broken down and cell division takes place, resulting in two identical cells.
On the technique in general: Flow cytometry measures light scatter and fluorescence of single cells or particles in a stream.

Assay [3] relates to Molm-14 cells. Description: Viability from trypan blue staining, Molm-14. It is filed as cell-based. Conditions: 5 μM, compared to PFI-1. The procedure: as §1
During the study of cell proliferation, the viability of the cell lines was likewise determined from the trypan blue staining. Trypan blue cannot penetrate into living cells.

For assay [4], the system named is PARP1 cleavage in HEL cells. Description: PARP1 cleavage Western blot (apoptosis), HEL. It is filed as cell-based. The conditions noted are these: 5 μM. The method, then: Cell lysates were produced with RIPA lysis buffer (50 mM Tris pH 7.4, 150 mM sodium chloride, 1 mM EDTA, 1% Triton-X, 15% glycerol, 0.5% sodium deoxycholate, and protease/phosphatase inhibitors). Protein concentrations were determined by the Bradford Protein Assay using a Nanodrop Spectrometer (NanoDrop 2000/2000c system, Thermo Fisher Scientific, Darmstadt, Germany) at 595 nm. To 25 μg of protein lysates was added 4xLämmli sample buffer, followed by denaturing at 65° C. for 5 min and introduction into the SDS-Page. The proteins were transferred by the wet blot method in Towbin buffer (3 g Tris, 14.4 g glycine, 5% methanol per litre of ddH2O) to a PVDF membrane at 100 mA overnight. The membrane was blocked with 10% BSA in TBS-T buffer (20 mM Tris-HCl, pH 7.6, 137 mM NaCl, 0.05% IGEPAL). The primary antibodies were incubated at 4° C. overnight, and the HRP-labelled antibodies at room temperature with the membrane for […]. The proteins were detected by means of PCA-ECL solution using a chemiluminescence detector (Fusion SL, PeqLab).
In addition, a possible induction of apoptosis in the cell lines described by compound MF2 was examined. […] Protein concentrations were determined with the Bradford protein assay using a Nanodrop Spectrometer at 595 nm. […] The proteins were detected by means of PCA-ECL solution using a chemiluminescence detector (Fusion SL, PeqLab). […]
In general terms: In western blotting, separated proteins are transferred to a membrane and probed.

Assay [5] relates to proteins from the BET family. Briefly: Thermal shift assay (BromoMELT assay), BET family. It is filed as binding. The conditions noted are these: 10 μM, duplicates, versus DMSO control; apart from BRDT-2. The method, then:
(§3) The experiment was conducted in duplicates at a concentration of 10 μM.

The subject of a further assay is BRD4. Briefly: Thermal shift assay (BromoMELT assay), BRD4. It is filed as binding. The conditions noted are these: 10 μM, duplicates, versus DMSO control. The method, then: as §3

In the case of `CN1Cc2cc(N=[S@@](C)(=O)c3ccccc3)ccc2NC1=O` [MF2-S, (S)—N-(3-methyl-2-oxo-1,2,3,4-tetrahydroquinazolin-6-yl)-S-methyl-S-phenylsulfoximine], the “metabolic activity of Molm-14 cells” value with AML cell line Molm-14 is 55.19%±0.72. In the assay with HEL cells, the “cell proliferation (cell count) of HEL” value was “significantly reduced the cell proliferation”. Also, in the assay on Molm-14 cells [1], the “cell proliferation (cell count) of Molm-14” value was “significantly reduced the cell proliferation”. In addition, in the assay with Molm-14 cells [2], the “subG1 phase (percentage of dead cells), Molm-14” value is given as “significantly higher proportions” and the “synthesis phase (S phase) of cell cycle, Molm-14” value was “more significantly inhibited by MF2-S than by PFI-1”. The “viability of Molm-14 cells” value with Molm-14 cells [3] is listed as “significantly reduced the viability”. Also, the “band for the PARP1 cleavage product, HEL” value in assay [4] (48 h, compared to PFI-1) was “more marked in HEL cells than in the case of PFI-1 treatment”. For the same molecule, the “induction of apoptosis, HEL” value in assay [4] (compared to MF2, MF2-R, PFI-1) is listed as “induced apoptosis more strongly than the other compounds examined”. In addition, the “binding of BET family proteins (ΔTm, in words)” value in assay [5] is listed as “equally good or better binding of proteins from the BET family compared to the comparative compound PFI-1”. Moreover, in the assay with BRD4, the “binding / specificity for BRD4 (ΔTm, in words)” value was “more specific binding of BRD4”.
